Melting point data for 62 molecules are collected here from a melting point compilation (Tetko et al.; mined from patent text by program, amines drawn as free bases though some values may be those of a salt).

Each structure is given as a SMILES string. Residues, ends and D or L forms follow the SMILES beside them.

Take `COC(=O)C1=C(C)Nc2c(c(=O)n(C)c(=O)n2C)C1c1cccc(Cl)c1` (configuration not stated): the melting point came to 230 °C.
In the case of `CC(=O)CN1CCc2ccc(C(=O)CCC(=O)N3CCC(c4ccc(Cl)cc4)CC3)cc2CC1` it was 119 to 120 °C.
For the molecule `CN(C)Cc1ccc(-c2cccc(-c3ccnc4c(C(=O)c5cccs5)cnn34)c2)cc1`, the melting point fell in the range of 192 to 195 °C.
For `CCc1cccc(Nc2ncnc3cc(OCc4ccccc4)c(OCCOC)cc23)c1` the value was 156 to 157 °C; for `CCCc1ccc(OCc2ccc(OCc3nc(-c4ccccc4)oc3C)cc2)cc1OCC(=O)OC`, 100 to 101 °C; for `O=C1CC=Nc2cc3c(cc21)OCO3`, 276 °C.
For `OC(c1cc(F)cc(F)c1)c1cc(F)cc(F)c1`, the melting point came out at 62 °C.
In the case of `O=C1c2ccccc2-c2c1c1ccccc1c(=O)n2CCCCCCCNS(=O)(=O)c1ccc(Br)cc1`, the melting point lay within 160 to 161 °C.
For the molecule `COc1ccc(-c2ccc3cnc(Nc4cc5c(cc4F)CCC(=O)N5)nn23)cn1`, the melting point worked out at 295 °C.
As for `CCC1c2cccn2-c2ccccc2N1S(=O)(=O)c1ccc(O)c(C)c1` (configuration not stated), the melting point is 171 to 173 °C.
Molecule `CC(=O)N1CCc2cc(S(=O)(=O)n3c(CCC(=O)O)cc4cc(Cl)ccc43)ccc21` displayed a melting point of 220 to 223 °C.
In turn, `CC(C)Oc1ccc2c(Cl)nc(C(=O)NCCO)c(O)c2c1` gave a melting point of 155 to 156 °C.
`CCC(=O)c1c(C)cc(NC(C)(C)C)nc1NC(C)(C)C` returned a melting point of 102 to 103 °C.
For `OC1c2cc(OCc3ccccn3)ccc2OCC1Cc1cccnc1` (configuration not stated), the melting point was 108 to 110 °C.
For `COc1ccc2c(c1)CC(=O)CO2` the value was 67 to 72 °C; for `CCCNS(=O)(=O)c1c(C)cc(C)cc1C`, 53 to 54 °C; for `C[C@H](N)C(=O)N1CCC[C@H]1C(=O)O` (H-Ala-Pro-OH), 106 to 132 °C.
Molecule `c1ccc(Oc2ccc(OCc3nc(C4CC4)no3)cc2)cc1` registered a melting point of 99 °C.
On to `CC(C(=O)Nc1ccc(C(=O)c2cccs2)cc1)c1ccccc1` (configuration not stated), for which the melting point came to 140 °C.
On to `Cn1c(-c2ccc(-c3ccccc3)cc2)cnc1[C@H](Cc1ccccn1)N(C=O)c1cc2cc(Br)ccc2o1`, for which the melting point lay in the range of 180 to 182 °C.
For `CCOC(=O)c1cccc(NC(=O)c2cc(C(C)C)c(C(C)C)o2)c1`, the melting point fell in the range of 144 to 145 °C.
For `O=C(O)C1CC(=O)N(c2ccccc2)N1` (configuration not stated) the value was 197 to 199 °C; for `CCOC(=O)c1nc2cc(NC(=O)OC(C)(C)C)ccn2n1`, 220 to 222 °C; for `COc1cc(Cl)c(Cl)cc1Oc1ccc(Cl)cc1`, 105 °C.
For `CCCCNc1c(C(=O)OCC)c(C)nc(Cl)c1[N+](=O)[O-]`, the melting point fell in the range of 33 to 35 °C.
Regarding `N#CCc1nn2c(C(F)(F)F)cc(-c3ccc(F)c(Cl)c3)nc2c1C#N`, the melting point is 185 °C.
The molecule `O=C(NO)[C@H](CNS(=O)(=O)c1ccc(OCc2ccc(F)cc2)cc1)N1CCCCC1` registered a melting point of 140 °C.
Regarding `Cc1ccc(F)cc1C(=O)Nc1ccc(C(=O)N2CCc3cn[nH]c3-c3sccc32)c(Cl)c1`, the melting point was in the range of 310 to 312 °C.
In the case of `CCCCCCCCCCOc1cnc(-c2ccc(CCCCCC(C)O)cc2)nc1` (configuration not stated) it was 78 to 79 °C.
For the molecule `COc1ccc(-c2ccccc2-c2ccc(S(N)(=O)=O)cc2)cc1Cl`, the melting point amounted to 180 °C.
`CN(C)CC1CCCCN1CCCNC(=O)N1c2ccccc2C(=O)Nc2cccnc21` (configuration not stated) registered a melting point of 160 to 162 °C.
The molecule `COc1cc(C(O)CN)cc(OC)c1OC` (configuration not stated) returned a melting point of 141 °C.
In the case of `CCCCCCCCCCCCCCCCCCOC(=O)Nc1ccc(NC(=O)NS(=O)(=O)c2ccc(OC)cc2)cc1`, the melting point amounted to 190 °C.
In the case of `O=C(CBr)CCc1ccc(Cl)cc1` it was 51 °C; in that of `COc1ccc(NC(=S)C(N)=O)cc1OC`, 149 to 151 °C; in that of `CC(=O)OCC(=O)Nc1cccc(-c2nnc(C(c3ccc(Cl)cc3)c3c(Cl)ccc(-n4ncc(=O)[nH]c4=O)c3Cl)o2)c1C` (configuration not stated), 206 °C.
`N#Cc1cc(-c2ccc(Cl)cc2)nc(Oc2ccc(F)c(C(F)(F)F)c2)n1` showed a melting point of 131 to 132 °C.
`COc1ccc(CC(C)NCC(O)c2ccccc2Cl)cc1OC` (configuration not stated) returned a melting point of 113 to 114 °C.
`Cc1ccc2c(c1)C=Cc1cc(C)ccc1C2c1cn(Cc2ccc(C(=O)Nc3nc(CC(=O)O)cs3)o2)c(=O)[nH]c1=S` had a melting point of 210 °C.
For `Cn1c(=O)c2c(nc3n2CC(O)CN3Cc2ccccc2)n(C)c1=O` (configuration not stated) the value was 225 to 227 °C; for `CCCNC(=O)c1ccc2c(c1)N(C(C)COS(C)(=O)=O)c1ccccc1S2` (racemic), 138 °C.
With `CC(C)CCCC(C)C1CCC2C3CC=C4CC(OC(=O)C(C)(C)CO)CCC4(C)C3CCC12C` (configuration not stated), the melting point fell in the range of 174 to 176 °C.
In the case of `OCC(O)COc1noc2ccc(Cl)cc12` (configuration not stated) it was 61 to 62 °C; in that of `Cc1ccccc1C(CCC(=O)O)Oc1cc(OCc2ccsc2)ccc1-c1ncco1` (racemic), 112 to 114 °C.
As for `COC(=O)c1ccc(F)cc1OC(=S)N(C)C`, the melting point was 107 °C.
Consider `NC(=O)c1ccccc1N=C(NC(=O)c1ccccc1)NC(=O)c1ccccc1`, for which the melting point is 276 to 278 °C.
`COc1cc2ncc(C#N)c(Nc3ccc(C)c(Cl)c3)c2cc1OC` showed a melting point greater than 250 °C.
For `Cc1cc(C2=CC(C)(C)CC(C)(C)C2CO)ccc1F` (configuration not stated), the melting point was 40 to 42 °C.
For `CC(=O)N[C@@H]1CN2C(=O)N(c3cc(Cl)cc(Cl)c3)C(=O)[C@@]2(Cc2ccc(Br)cc2)C1`, the melting point is 141 °C.
On to `OC1CSC(Oc2cc(F)ccc2-c2ccncc2)C(O)C1O` (configuration not stated), for which the melting point is 209 °C.
Take `Cc1cc(=O)n2cccc(OCc3ccc(Cl)cc3Br)c2n1`: the melting point fell in the range of 182 to 184 °C.
As for `CC=CCSc1cc(C(=O)O)cc(N)c1-c1ccccc1`, the melting point lay in the range of 102 to 104 °C.
In turn, `Cn1nnnc1C(CO)=C(c1ccc(F)cc1)c1ccc(F)cc1` came in with a melting point of 141 to 142 °C.
The molecule `O=C(Cn1c2c(c(=O)n3nc(-c4ccccc4)cc13)CN(C1CCCCC1)C2=O)c1ccccc1` gave a melting point of 164 to 167 °C.
In the case of `CCOC(=O)c1c(C)nc2sc(C)nc2c1NCCCN(C)C` it was 53 to 54 °C; in that of `N=C(N)COc1cccc(Cl)c1Cl`, 104 to 108 °C.
`CCCc1nc2cnc3ccc([N+](=O)[O-])cc3c2s1` yielded a melting point of 228 to 230 °C.
In turn, `CCN(CC)C1=NC(=O)C(=Cc2cccc(-c3ccc(O)c(C45CC6CC(CC(C6)C4)C5)c3)c2)S1` had a melting point of 275 to 277 °C.
In the case of `Cn1cc(-c2cncc(OC3SCC(O)C(O)C3O)c2)c(C(F)(F)F)n1` (configuration not stated) it was 210 °C.
Molecule `CCCC(O)(CCC)c1c2c(nn1C)N(c1c(C)cc(C)cc1Cl)CCC2` registered a melting point of 129 to 130 °C.
For `CN(C)C(=O)N(C)c1nnc(C(C)(C)CCl)s1` the value was 80 to 82 °C.
Molecule `Cc1ccc(-c2nc(CO[C@H]3CCC[C@@H](C(=O)N[C@H](C(=O)O)C(C)C)C3)c(C)o2)cc1` returned a melting point of 195 to 196 °C.

As a reminder, the melting point is the temperature of the solid-liquid transition.
